# From patent US8557804B2, “Nicotinic receptor agonists for the treatment of inflammatory diseases” (priority 2002, dated 2013)
# Columns and labels:
# [1] = system: mouse tracheal airway smooth muscle; assay: Isometric study on isolated mouse tracheas pre-contracted with metacholine; conditions: cumulative doses, metacholine 10^−5
# Description: Tracheal rings were mounted isometrically to force transducers in organ baths containing Krebs bicarbonate solution at 37° C. and bubbled with 95% O2-5% CO2, pre-contracted with submaximal concentration of metacholine (10^−5) and cumulative doses of the analogs were added to the baths. Changes of tension are recorded. Results are expressed as a percentage of maximal contraction (FIG. 29).
# As described previously, tracheal or bronchial rings were mounted isometrically to force transducers in organ baths containing Krebs bicarbonate solution at 37° C. and bubbled with 95% O2-5% CO2, pre-contracted with submaximal concentration of metacholine cumulative doses of ASM-002 added. Changes of tension are recorded. Results are expressed as a percentage of maximal contraction for mouse (FIG. 34, p=0.002), dog (FIG. 35, p=0.004) and human (FIG. 36)
# blood eosinophils = assay: Blood eosinophil transmigration through an artificial basement membrane (Matrigel coated chemotaxis chamber); format: cell-based; conditions: purified blood eosinophils, Matrigel
# From the text: Infiltration of eosinophils and other inflammatory cells into lung tissues is an important feature of asthma and the cause of airway inflammation and hyper-responsiveness. The passage of inflammatory cells from the circulation to the lung involves migration through the vascular endothelium, the basement membrane, and extra-cellular matrix components. Inflammatory cells cross the basement membrane by producing proteinases. In these preliminary in vitro experiments, the effects of various nicotinic agonists on the migration of purified blood eosinophils through an artificial basement membrane (Matrigel® coated chemotaxis chamber) were investigated. […] Results are expressed as a percentage of inhibition (agonists-treated cells) compared to the control condition without the agonists.
compound,measurement,setting,value
"C[N+]1(C)CCN(c2ccccc2)CC1 [DMPP, Dimethylphenylpiperazinium]",relaxation of tracheal smooth muscles pre-contracted with metacholine,[1],dose dependant relaxation
same,inhibition of eosinophil transmigration,blood eosinophils,dose-related inhibition
